Reference: publication PMC8406319, “The dCache Chemoreceptor TlpA of Helicobacter pylori Binds Multiple Attractant and Antagonistic Ligands via Distinct Sites” (mBio, 2021)
Structures can show the parent of a compound that is named as a salt. Where two headings read alike, the source gives them in different places.

Tests used:
[1] = biological target: T1, TlpAD165A (Helicobacter pylori, UniProt O24925, D165A); test: biochemical
T1 sequence (O24925 28-299 D165A): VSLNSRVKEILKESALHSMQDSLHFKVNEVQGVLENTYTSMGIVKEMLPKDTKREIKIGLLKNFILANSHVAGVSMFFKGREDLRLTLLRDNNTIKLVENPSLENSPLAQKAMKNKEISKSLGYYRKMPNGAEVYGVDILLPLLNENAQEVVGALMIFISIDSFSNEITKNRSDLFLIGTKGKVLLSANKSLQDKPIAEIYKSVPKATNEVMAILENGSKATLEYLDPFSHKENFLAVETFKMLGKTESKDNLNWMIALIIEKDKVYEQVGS
Description: (§1) The periplasmic portion of TlpA (TlpALBD), amino acids 28 to 299, from Helicobacter pylori SS1 was cloned into a pBH4 expression vector (pBH4_TlpALBD) to generate an N-terminal 6×His-tagged construct, with a tobacco etch virus (TEV) protease site, under the control of isopropyl-β-D-thiogalactopyranoside (IPTG) ([19]). […] TlpALBD and all point mutants were purified as described previously by Sweeney et al. ([19]).
(§2) Purified TlpALBD was immobilized on a CM5 series S sensor chip, and binding affinities were tested using a Biacore S200 instrument (GE Healthcare) as described previously ([39], [57], [59]). Briefly, proteins were captured using an amine-coupling kit (GE Healthcare), in which the carboxylmethyl dextran matrix of the sensor chip was activated by the injection of a mixture of 0.2 M 1-ethyl-3-[(3-dimethylamino)propyl]-carbodiimide (EDC) and 0.05 M N-hydroxysuccinimide (NHS), followed by the neutralization of the remaining unreacted NHS ester groups by the injection of 1 M ethanolamine-HCl (pH 8.0). Purified TlpALBD was diluted in 10 mM sodium acetate buffer (pH 4.5) at a concentration of 100 μg/ml for immobilization to the chip. A total of 8,400 response units (RU) of TlpALBD were captured on flow cell 2. As a negative control, flow cell 1 was a blank control undergoing the same treatment as the other flow paths, without the protein injection. This set enabled double-reference subtraction of the responses (2 − 1, 3 − 1, and 4 − 1). The tested compounds were prepared as a stock concentration of 100 to 200 mM in PBS. The compounds were then diluted between 1 nM and 1 mM in a series of 1:10 dilutions in PBS and run over the flow cells at a flow rate of 30 μl/min. Between each sample testing, a series of buffer-only injections was run to enable double-blank subtraction for the sensorgram assessment. […] The data sets were analyzed using Biacore S200 evaluation software 2.0.2; sensorgrams were double-reference subtracted.

[2] = biological target: T2, TlpAD254A (Helicobacter pylori, UniProt O24925, D254A); test: biochemical
T2 sequence (O24925 28-299 D254A): T1 sequence (O24925 28-299 D165A)
Description: as §1, §2

[3] = biological target: T3, TlpALBD (TlpAWT) (Helicobacter pylori, UniProt O24925); test: biochemical; details: SPR
T3 sequence (O24925 28-299): T1 sequence (O24925 28-299 D165A)
Description: as §1, §2

[4] = biological target: T4, TlpAM183A (Helicobacter pylori, UniProt O24925, M183A); test: biochemical
T4 sequence (O24925 28-299 M183A): T1 sequence (O24925 28-299 D165A)
Description: as §1, §2

[5] = biological target: T5, TlpAY228A (Helicobacter pylori, UniProt O24925, Y228A); test: biochemical
T5 sequence (O24925 28-299 Y228A): T1 sequence (O24925 28-299 D165A)
Description: as §1, §2

[6] = biological target: T6, TlpAY252A (Helicobacter pylori, UniProt O24925, Y252A); test: biochemical
T6 sequence (O24925 28-299 Y252A): T1 sequence (O24925 28-299 D165A)
Description: as §1, §2

[7] = test system: H. pylori PMSS1 WT; test: Temporal chemotaxis assay (live-cell video microscopy, direction changes), WT; type: cell-based, Helicobacter pylori; details: for Chemotactic response (direction changes vs mock): WT, 0.1, 1, 10 mM tested, acidic ligand stocks pH neutralized with NaOH, 10 mM most significant; for Chemotactic response, ligand stock pH not adjusted: acidic in solution, unadjusted pH
Procedure: H. pylori chemotactic responses toward the seven putative TlpA-dependent ligands were examined by a live-cell video microscopy assay that measures the temporal chemotaxis response to test ligands. […] Acidic conditions are sensed by chemoreceptors other than TlpA ([24], [29], [31]) and potentially mask chemotactic responses to the ligands being tested.
Cultures of H. pylori PMSS1 WT and ΔtlpA strains were grown overnight, back-diluted, and then incubated until an OD600 of 0.12 to 0.15 was reached. Cultures were treated with water (Mock) or various concentrations of compounds, as indicated. […] The cells were immediately filmed, and direction changes were counted over a 3-s swimming period in at least 100 cells per treatment from 3 biological replicates. Data are normalized to the values for the untreated control for each strain, as described in Materials and Methods. Error bars represent the standard errors of the means. *, P < 0.05; **, P < 0.01; ***, P < 0.001 (comparisons to the untreated control per strain using two-way ANOVA with Dunnett’s multiple-comparison test).
Swimming behavior assays were done with H. pylori PMSS1 strains grown in BB10 as described above. Cultures grown overnight were diluted to an optical density at 600 nm (OD600) of 0.1 in fresh BB10 and then incubated with shaking as described above until an OD600 of 0.12 to 0.15 was reached. […] The number of direction changes in a bacterial swimming trajectory was enumerated over a 3-s interval to determine whether each putative ligand is sensed as an attractant or repellent or elicits no response ([20], [25][–][30]). […] Each control is sensed by chemoreceptors other than TlpA ([24], [25], [29], [31]). The pH of BB10 upon treatment was independently assessed using a Denver Instruments pH meter. […] Therefore, to be able to compare the results to those of previous experiments, we continued resuspending acidified ligands in pure water and then adjusting the pH of the resuspended ligand using NaOH. Cultures were filmed immediately after ligand addition at a ×400 magnification using a Hamamatsu C4742-95 digital camera with μManager software (version 1.4.22), mounted on a Nikon Eclipse E600 phase-contrast microscope. For the competition chemotaxis assay, cultures of H. pylori and ligands were prepared as described above. However, 1 min after the addition of a nonchemoactive ligand at a final concentration of 10 mM, a chemoactive ligand was added at a final concentration of 10 mM, and the cultures were then filmed as described above. Videos were relabeled to blind the observer to the strain identity. For each sample, >100 3-s-long bacterial tracks from three independent cultures were analyzed manually to identify stops followed by direction changes. Data for all biological replicates under each condition were combined, and the average number of direction changes in 3 s and the standard error of the mean were calculated. For each strain, data were normalized to the values for the untreated control under each experimental condition. Statistical analysis of the data for treated versus untreated samples was performed using two-way analysis of variance (ANOVA) and Dunnett’s multiple-comparison test.

[8] = Mean binding affinity ± SD, Table 1, n = 3
[9] = dissociation constant [Kd], WT TlpALBD

Row | SMILES | Kd [1] | Kd [2] | Effect of TlpAD254A mutation on binding ([2]; membrane-proximal mutant vs WT) | Kd [3, 8] | Kd [3, 9] | Kd [4] | Kd [5] | Kd [6] | Chemotactic response (direction changes vs mock) [7] | Kd ([5]; read-out: Mean binding affinity ± SD, TlpAY228A, SPR, membrane-proximal mutant, n = 3) | Chemotactic response, ligand stock pH not adjusted [7]
1 | O=C(O)/C=C/C(=O)O [Fumarate, sodium fumarate] | 100 ± 38.9 µM | 44 ± 8.1 µM | affected only fumarate binding | 10 ± 1.53 µM | < 10 µM | 106 ± 36.6 µM | 46.6 ± 3.9 µM | 8.5 ± 1.7 µM | fewer direction changes | – | –
2 | N=C(N)NCCC[C@H](N)C(=O)O [Arginine, L-arginine monohydrochloride] | 12.4 ± 0.84 µM | 3.71 ± 0.73 µM | – | 2 ± 0.11 µM | < 10 µM | 22.3 ± 5.9 µM | 8.3 ± 1.6 µM | 4.96 ± 1.8 µM | fewer direction changes | – | –
3 | N[C@H]1C(O)O[C@H](CO)[C@@H](O)[C@@H]1O (stereo partly drawn) [Glucosamine, D(+)-glucosamine hydrochloride] | 96 ± 24.3 µM | 9.84 ± 3.7 µM | – | 10.5 ± 2.8 µM | < 10 µM | 94.6 ± 57.3 µM | – | 2.96 ± 0.7 µM | no significant direction changes | 17.1 µM | –
4 | N[C@@H](CS)C(=O)O [Cysteine, L-cysteine hydrochloride monohydrate] | 41.9 ± 0.4 µM | 4.58 ± 1.5 µM | – | 4.7 ± 0.3 µM | < 10 µM | 36.1 ± 15.7 µM | 15.7 ± 6.6 µM | 5.5 ± 0.8 µM | fewer direction changes | – | significant TlpA-independent chemorepellent responses
5 | O=C(O)C[C@H](O)C(=O)O [Malic acid, L-malic acid] | 11.9 ± 4.3 µM | 29.3 ± 2 µM | – | 46 ± 17 µM | > 45 µM | 33.6 ± 6.2 µM | 28.6 ± 9.4 µM | 14.2 ± 6.2 µM | no significant direction changes | – | significant TlpA-independent chemorepellent responses
6 | Cc1ncc(C[n+]2csc(CCO)c2C)c(N)n1 [Thiamine, thiamine hydrochloride] | 43.9 ± 14.1 µM | 39.3 ± 4.3 µM | – | 60 ± 0.6 µM | > 45 µM | 18.1 ± 1.2 µM | 29.5 ± 12.3 µM | 35 ± 7.3 µM | no significant direction changes | – | significant TlpA-independent chemorepellent responses
